# Experimental data published in ChEMBL document CHEMBL4699565, “Computational modeling and target synthesis of monomethoxy-substituted o-diphenylisoxazoles with unexpectedly high antimitotic microtubule destabilizing activity” (Bioorg Med Chem Lett, 2020).
# Key:
# Paracentrotus lividus [1] = test: Antimitotic activity against sea urchin embryo assessed as cleavage arrest measured 2.5 to 6 hrs post-fertilization by light microscopy analysis; format: functional; conditions: time hrs 2.5-6
# Paracentrotus lividus [2] = test: Antimitotic activity against sea urchin embryo assessed as cleavage alteration measured 2.5 to 6 hrs post-fertilization by light microscopy analysis; format: functional
# Paracentrotus lividus [3] = test: Antimitotic activity against sea urchin embryo assessed as embryo spinning measured 2.5 to 6 hrs post-fertilization observed after 15 min to 20 hrs of treatment by light microscopy analysis; format: functional; conditions: time hrs 0.25-20
# [4] = system: Panel NCI-60 (60 carcinoma cell lines); test: Cytotoxicity against human NCI60 cells; format: functional
# MDA-MB-435 = test: Cytotoxicity against human MDA MB 435 cells; format: functional
# Tubulin (Homo sapiens) = Tubulin (Homo sapiens) (UniProt P68371+Q9H4B7+P0DPH7+P68366+Q13509+Q71U36+P04350+Q3ZCM7+P07437+P68363+Q9BQE3+Q6PEY2+Q13885+Q9BVA1+Q9BUF5); test: Binding affinity to tubulin (unknown origin) assessed as change in gibbs free energy; format: protein-complex assay
# K562 = test: Cytotoxicity against human K562 cells; format: functional, cell-based
# Paracentrotus lividus [5] = test: Antimitotic activity against sea urchin embryo assessed as cleavage arrest by phase microscopy analysis; format: functional
SMILES,EC (Paracentrotus lividus [1]),EC (Paracentrotus lividus [2]),EC (Paracentrotus lividus [3]),GI50 [4],GI50 (MDA-MB-435),deltaG (Tubulin (Homo sapiens)),IC50 (K562),EC (Paracentrotus lividus [5])
COc1cc(-c2cc(-c3cccc(O)c3)cnc2N)cc(OC)c1OC,1 µM,0.1 µM,1 µM,–,–,–,–,–
COc1ccc(-c2conc2-c2ccccc2)cc1,0.05 µM,0.005 µM,0.1 µM,0.457 µM,0.026 µM,-47.4 kJ/mol,0.047 µM,–
COc1ccc(-c2nocc2-c2cc(OC)c(OC)c(OC)c2)cc1,–,–,–,–,–,-45.7 kJ/mol,–,–
COc1ccc(-c2cnoc2-c2ccccc2)cc1,0.02 µM,0.002 µM,0.1 µM,–,–,-49.7 kJ/mol,–,–
COc1ccc(/C=C\c2cc(OC)c(OC)c(OC)c2)cc1O [COMBRETASTATIN A4],0.01 µM,0.002 µM,0.05 µM,–,–,-49.7 kJ/mol,0.001 µM,–
COc1cc([C@@H]2c3cc4c(cc3[C@H](O)[C@H]3COC(=O)[C@H]23)OCO4)cc(OC)c1OC [PODOFILOX],0.05 µM,0.02 µM,0.5 µM,–,–,–,–,–
COc1ccc(-c2oncc2-c2ccccc2)cc1,2 µM,0.2 µM,>5 µM,–,–,-38.3 kJ/mol,–,–
COc1ccc(-c2nocc2-c2ccccc2)cc1,2 µM,0.2 µM,2 µM,–,–,-38.3 kJ/mol,–,–
COc1cc2c(c(OC)c1OC)-c1ccc(OC)c(=O)cc1[C@@H](NC(C)=O)CC2 [COLCHICINE],0.1 µM,0.05 µM,0.05 µM,–,–,–,–,–
COc1cc2c(c(OC)c1OC)-c1cc3c(cc1[C@H](OC(C)=O)[C@H]1COC(=O)[C@@H]1C2)OCO3 [(-)-STEGANACIN],–,–,–,–,–,–,–,0.3 µM
